Each block holds one molecule with its values, some of them ahead of it.
Test system: 817829-284-R-J1-PDC complex spheroids, viability
Experiment: Anticancer human tumor 817829-284-R-J1-PDC patient-derived colon adenocarcinoma cell line growth inhibition [GQUAD]
Settings: for IC50: curve of first compound; for viability, T/C: stronger effect = lower value
Summary of the method: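 Viability of tumor cells grown as complex spheroids with endothelial and stromal cells, exposed to drug combinations. Top concentration at or near clinical Cmax (else 10 microM), diluted in half-log increments.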

[1] = second compound 0.0316 µM, first compound 0.0316 µM
[2] = second compound 0.0316 µM, first compound 0.1 µM
[3] = second compound 0.0316 µM, first compound 0.316 µM
[4] = second compound 0.0316 µM, first compound 1 µM
[5] = second compound 0.0316 µM, first compound 3.16 µM
[6] = second compound 0.0316 µM, first compound 10 µM
[7] = second compound 0.1 µM, first compound 0.0316 µM
[8] = second compound 0.1 µM, first compound 0.1 µM
[9] = second compound 0.1 µM, first compound 0.316 µM
[10] = second compound 0.1 µM, first compound 1 µM
[11] = second compound 0.1 µM, first compound 3.16 µM
[12] = second compound 0.1 µM, first compound 10 µM
[13] = second compound 0.316 µM, first compound 0.0316 µM
[14] = second compound 0.316 µM, first compound 0.1 µM
[15] = second compound 0.316 µM, first compound 0.316 µM
[16] = second compound 0.316 µM, first compound 1 µM
[17] = second compound 0.316 µM, first compound 3.16 µM
[18] = second compound 0.316 µM, first compound 10 µM
[19] = second compound 1 µM, first compound 0.0316 µM
[20] = second compound 1 µM, first compound 0.1 µM
[21] = second compound 1 µM, first compound 0.316 µM
[22] = second compound 1 µM, first compound 1 µM
[23] = second compound 1 µM, first compound 3.16 µM
[24] = second compound 1 µM, first compound 10 µM
[25] = second compound 3.16 µM, first compound 0.0316 µM
[26] = second compound 3.16 µM, first compound 0.1 µM
[27] = second compound 3.16 µM, first compound 0.316 µM
[28] = second compound 3.16 µM, first compound 1 µM
[29] = second compound 3.16 µM, first compound 3.16 µM
[30] = second compound 3.16 µM, first compound 10 µM
[31] = second compound 10 µM, first compound 0.0316 µM
[32] = second compound 10 µM, first compound 0.1 µM
[33] = second compound 10 µM, first compound 0.316 µM
[34] = second compound 10 µM, first compound 1 µM
[35] = second compound 10 µM, first compound 3.16 µM
[36] = second compound 10 µM, first compound 10 µM
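Also: spheroids exposed to agents for 7 days before readout.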
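For viability, T/C in this document: percent viability relative to DMSO vehicle control taken as 100%.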

- IC50 (second compound 0.0316 µM): 52.9 nM
- IC50 (second compound 0.1 µM): < 31.6 nM
- IC50 (second compound 0.316 µM): < 31.6 nM
- IC50 (second compound 1 µM): < 31.6 nM
- IC50 (second compound 3.16 µM): < 31.6 nM
- IC50 (second compound 10 µM): < 31.6 nM
Structure (SMILES): C=CCn1c(=O)c2cnc(Nc3ccc(N4CCN(C)CC4)cc3)nc2n1-c1cccc(C(C)(C)O)n1 + Cc1cnc(CNC(=O)c2c(=O)c3ccc(N4CCCN(C)CC4)nc3n3c2sc2ccccc23)cn1
- viability, T/C [1]: 61.2%
- viability, T/C [2]: 35.9%
- viability, T/C [3]: 17.1%
- viability, T/C [4]: 6.1%
- viability, T/C [5]: 4.9%
- viability, T/C [6]: 4.63%
- viability, T/C [7]: 25.2%
- viability, T/C [8]: 25.4%
- viability, T/C [9]: 13.4%
- viability, T/C [10]: 10.5%
- viability, T/C [11]: 7.47%
- viability, T/C [12]: 6.17%
- viability, T/C [13]: 20.3%
- viability, T/C [14]: 18.2%
- viability, T/C [15]: 15.1%
- viability, T/C [16]: 10.6%
- viability, T/C [17]: 8.59%
- viability, T/C [18]: 7.12%
- viability, T/C [19]: 16.9%
- viability, T/C [20]: 20.6%
- viability, T/C [21]: 13.9%
- viability, T/C [22]: 10.2%
- viability, T/C [23]: 7.61%
- viability, T/C [24]: 6.9%
- viability, T/C [25]: 18.4%
- viability, T/C [26]: 17%
- viability, T/C [27]: 14.1%
- viability, T/C [28]: 9.62%
- viability, T/C [29]: 6.71%
- viability, T/C [30]: 6.66%
- viability, T/C [31]: 0.11%
- viability, T/C [32]: 0.15%
- viability, T/C [33]: 0.15%
- viability, T/C [34]: 0.14%
- viability, T/C [35]: 0.17%
- viability, T/C [36]: 0.2%

- IC50 (second compound 0.0316 µM): 527 nM
- IC50 (second compound 0.1 µM): < 31.6 nM
- IC50 (second compound 0.316 µM): < 31.6 nM
- IC50 (second compound 1 µM): < 31.6 nM
- IC50 (second compound 3.16 µM): < 31.6 nM
- IC50 (second compound 10 µM): < 31.6 nM
Structure (SMILES): CC(C)(O)C1CCC(Nc2ccc3ncc(-c4cccc(C(F)(F)F)c4)n3n2)CC1 (stereo unspecified) + Cc1cnc(CNC(=O)c2c(=O)c3ccc(N4CCCN(C)CC4)nc3n3c2sc2ccccc23)cn1
- viability, T/C [1]: 63.1%
- viability, T/C [2]: 53.3%
- viability, T/C [3]: 76.1%
- viability, T/C [4]: 32.3%
- viability, T/C [5]: 5.43%
- viability, T/C [6]: 13.3%
- viability, T/C [7]: 31.4%
- viability, T/C [8]: 36.8%
- viability, T/C [9]: 26%
- viability, T/C [10]: 20.4%
- viability, T/C [11]: 7.21%
- viability, T/C [12]: 8.8%
- viability, T/C [13]: 22.4%
- viability, T/C [14]: 25.3%
- viability, T/C [15]: 25.3%
- viability, T/C [16]: 16.4%
- viability, T/C [17]: 1.35%
- viability, T/C [18]: 3.38%
- viability, T/C [19]: 16.6%
- viability, T/C [20]: 21.5%
- viability, T/C [21]: 21%
- viability, T/C [22]: 15.8%
- viability, T/C [23]: 0.04%
- viability, T/C [24]: 0.05%
- viability, T/C [25]: 20.8%
- viability, T/C [26]: 18%
- viability, T/C [27]: 19.1%
- viability, T/C [28]: 9.34%
- viability, T/C [29]: 0.09%
- viability, T/C [30]: 0.09%
- viability, T/C [31]: 0.11%
- viability, T/C [32]: 0.13%
- viability, T/C [33]: 0.17%
- viability, T/C [34]: 0.12%
- viability, T/C [35]: 0.19%
- viability, T/C [36]: 0.18%

- IC50 (second compound 0.0316 µM): 44.8 nM
- IC50 (second compound 0.1 µM): < 31.6 nM
- IC50 (second compound 0.316 µM): < 31.6 nM
- IC50 (second compound 1 µM): < 31.6 nM
- IC50 (second compound 3.16 µM): < 31.6 nM
- IC50 (second compound 10 µM): < 31.6 nM
Structure (SMILES): CCCS(=O)(=O)Nc1ccc(F)c(C(=O)c2c[nH]c3ncc(-c4ccc(Cl)cc4)cc23)c1F + Cc1cnc(CNC(=O)c2c(=O)c3ccc(N4CCCN(C)CC4)nc3n3c2sc2ccccc23)cn1
- viability, T/C [1]: 57.4%
- viability, T/C [2]: 33.9%
- viability, T/C [3]: 34.4%
- viability, T/C [4]: 28.3%
- viability, T/C [5]: 30.9%
- viability, T/C [6]: 11.8%
- viability, T/C [7]: 20.7%
- viability, T/C [8]: 21.9%
- viability, T/C [9]: 15.6%
- viability, T/C [10]: 14.8%
- viability, T/C [11]: 12.5%
- viability, T/C [12]: 10.2%
- viability, T/C [13]: 19.2%
- viability, T/C [14]: 20%
- viability, T/C [15]: 17.1%
- viability, T/C [16]: 16.7%
- viability, T/C [17]: 15.7%
- viability, T/C [18]: 10.7%
- viability, T/C [19]: 16.7%
- viability, T/C [20]: 19.7%
- viability, T/C [21]: 18.6%
- viability, T/C [22]: 14.5%
- viability, T/C [23]: 14.5%
- viability, T/C [24]: 6.86%
- viability, T/C [25]: 18%
- viability, T/C [26]: 17.4%
- viability, T/C [27]: 15.1%
- viability, T/C [28]: 12.9%
- viability, T/C [29]: 12.2%
- viability, T/C [30]: 2.83%
- viability, T/C [31]: 0.09%
- viability, T/C [32]: 0.13%
- viability, T/C [33]: 0.17%
- viability, T/C [34]: 0.16%
- viability, T/C [35]: 0.17%
- viability, T/C [36]: 0.17%

Source: PubChem BioAssay AID2060503 (Molecular Pharmacology Branch, DTP, NCI, 2025)
